Reference: patent publication US12133921B2, “Capsule filling composition, method of producing capsule formulation with the use of capsule filling composition, and capsule formulation” (SHIN-ETSU CHEMICAL CO., LTD., priority 2019, dated 2024)

Assay: Compressibility index of the active ingredient
Type: physicochemical
Conditions: 2,000 mg compressed at 0.5 N, remaining weight after three droppings from 1 cm, n=5
Protocol: The active ingredient weighing 2,000 mg was introduced into a polycarbonate tube (a hollow cylindrical form with an inner diameter of 12.5 mm and a height of 52.0 mm; “polycarbonate spacer (hollow) CPC (CPC-1252); manufactured by Hirosugi Keiki Co., Ltd.) which was left to stand on a stainless steel bat. Next, by using a tension and compression testing machine (“SDT—503 NB”; manufactured by Imada Seisakusho Co., Ltd.), the active ingredient within the polycarbonate tube was compressed by a cylindrical tool having a contact surface of 11.28 mmΦ in diameter to prepare a compressed product (compression condition; speed: 100 mm/min., load: 0.5 N, load maintaining time: 1 sec.). […]
The lifted polycarbonate tube was released from the fingers, and dropped down. After repeating this procedure three times, the remaining weight of the polycarbonate tube containing the compressed product of the active ingredient was measured as a weight after test.
The amount of powder flowing out from the polycarbonate tube was determined by subtracting the weight after test from the weight before test. Furthermore, the remaining weight of the compressed product of the active ingredient was determined by subtracting the amount of powder flowing out from the polycarbonate tube from the weight before test. […]

compressibility index: 5%
Structure (SMILES): Cc1cc2nc3c(=O)[nH]c(=O)nc-3n(C[C@H](O)[C@H](O)[C@H](O)CO)c2cc1C [vitamin B2, riboflavin]
